Experimental data from patent US8158657B2, “Heterocycles substituted pyridine derivatives and antifungal agent containing thereof” (Eisai R&D Management Co., Ltd., priority 2005, dated 2012).
Converted amounts (≈) assume the structure as drawn.

Legend:
[1] = system: C. albicans CAF2-1 strain; experiment: Anti-Candida activity, MIC measurement; type: cell-based; conditions: CAF21STRAIN, C. albicans CAF2-1, RPMI1640, 42-48 hours at 35° C., visual inspection, read-out: Anti-Candida Activity (minimum inhibitory concentration, MIC)
Procedure, shortened: (§1)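 C. albicans CAF2-1 was grown 48 h at 30° C. in SDB and diluted in RPMI1640 to 1.2×10^3 cells/mL. Frozen A. fumigatus Tsukuba was diluted to 4.5×10^3 cells/mL. Compounds, two-fold serially diluted in DMSO from 2.5 mg/mL, were cultured aerobically with fungi for 42-48 h at 35° C.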

[2] = system: A. fumigatus Tsukuba strain; experiment: Anti-Aspergillus activity, MIC measurement; type: cell-based; conditions: RPMI1640, 42-48 hours at 35° C., visual inspection, read-out: Anti-Aspergillus Activity (minimum inhibitory concentration, MIC)
Procedure, shortened: as §1

[3] = system: C. albicans E81022 strain; experiment: Experimental systemic candidal infection model in mice; type: in vivo; conditions: peroral, 3 times every 4 hours, female ICR mice, observed until 14 days after infection
Method: A standing culture of C. albicans E81022 strain was carried out for 48 hours at 30° C. in sabouraud dextrose agar medium (SDA), the recovered fungal cells were suspended in sterilized physiological saline. By counting the fungal number on cytometry plate, the suspension was diluted to 2×10^7 cells/mL with sterilized physiological saline to serve fungal inoculum.
The fungal inoculum was used in the amounts of 0.2 mL to inoculate 4.5 to 5.5 week-old female ICR mice in the tail vein (4×10^6 cells/mouse).
From 0.5 to 1 hour after fungal inoculation, 0.2 mL of agent solution (dissolved or suspended in sterilized physiological saline containing 6.5% dimethyl sulfoxide and 3.5% Tween 80) was administered into the stomach using a peroral probe, 3 times every 4 hours. The agent concentration was 2.5 mg/kg or 10 mg/kg, and the number of animals in one group was 5 animals.
The protective effect was determined by observing life/death until 14 days after infection and calculating the mean survival days.

| SMILES | MIC [1] [µg/mL] | MIC [2] [µg/mL] | Mean Survival Days ([3]; 2.5 mg/kg) [days] | Mean Survival Days ([3]; 10 mg/kg) [days] |
| --- | --- | --- | --- | --- |
| Nc1ncccc1-c1cc(Cc2ccc(OCc3ccccc3)nc2)no1 [Example 12, 3-(3-(6-Benzyloxy-pyridin-3-ylmethyl)-isoxazol-5-yl)-pyridin-2-ylamine] | 0.1 (≈ 0.279 µM) | 0.1 (≈ 0.279 µM) | 10.8 | 14.0 |
| Nc1ccc(-c2cc(Cc3ccc(OCc4ccccc4)cc3)no2)c(N)n1 [Example 13, 3-(3-(4-Benzyloxy-benzyl)-isoxazol-5-yl)-pyridin-2,6-diamine] | 0.2 (≈ 0.537 µM) | 0.1 (≈ 0.269 µM) | 13.8 | 14.0 |
| Nc1ccc(-c2cc(Cc3ccc(COc4ccccn4)cc3)no2)c(N)n1 [Example 14] | 0.39 (≈ 1.04 µM) | 0.39 (≈ 1.04 µM) | 13.4 | 14.0 |
| Cc1cccc(OCc2ccc(Cc3cc(-c4ccc(N)nc4N)on3)cc2)n1 [Example 15, 3-(3-(4-(6-Methyl-pyridin-2-yloxymethyl)-benzyl)-isoxazol-5-yl)-pyridin-2,6-diamine] | 0.2 (≈ 0.516 µM) | 0.39 (≈ 1.01 µM) | 10.8 | 12.6 |
| CCCCOCc1ccc(Cc2cc(-c3ccc(N)nc3N)on2)cc1 [Example 16, 3-(3-(4-Butoxymethyl-benzyl)-isoxazol-5-yl)-pyridin-2,6-diamine] | 0.39 (≈ 1.11 µM) | 0.39 (≈ 1.11 µM) | 4.8 | 12.8 |
| Nc1ccc(-c2cc(Cc3ccc(Oc4ccccc4)cc3)no2)c(N)n1 [Example 17, 3-(3-(4-Phenoxy-benzyl)-isoxazol-5-yl)-pyridin-2,6-diamine] | 0.78 (≈ 2.18 µM) | 0.2 (≈ 0.558 µM) | 8.2 | 13.0 |
| Cc1ccnc(COc2ccc(Cc3cc(-c4ccc(N)nc4N)on3)cc2)c1 [Example 24, 3-(3-(4-(4-Methyl-pyridin-2-ylmethoxy)-benzyl)-isoxazol-5-yl)-pyridin-2,6-diamine] | 0.39 (≈ 1.01 µM) | 0.78 (≈ 2.01 µM) | 7.4 | 14.0 |
| Nc1ccc(-c2cc(Cc3ccc(OCc4ccccc4)nc3)no2)c(N)n1 [Example 25, 3-(3-(6-benzyloxy-pyridin-3-ylmethyl)-isoxazol-5-yl)-pyridine-2,6-diamine] | 0.2 (≈ 0.536 µM) | 0.2 (≈ 0.536 µM) | 12.2 | – |
| COCc1ccc(-c2cc(Cc3ccc(COc4ccccn4)cc3)no2)c(N)n1 [Example 27] | 0.2 (≈ 0.497 µM) | 0.39 (≈ 0.969 µM) | 3.0 | 10.0 |
| Nc1ncccc1-c1cc(Cc2ccc(OCc3ccccc3)cc2)on1 [Example 29, 3-(5-(4-Benzyloxy-benzyl)-isoxazol-3-yl)-pyridin-2-ylamine] | 0.39 (≈ 1.09 µM) | 0.2 (≈ 0.56 µM) | – | 11.4 |
| Nc1ncccc1-c1cc(Cc2ccc(COc3ccccn3)cc2)on1 [Example 30, 3-(5-(4-(Pyridin-2-yloxymethyl)-benzyl)-isoxazol-3-yl)-pyridin-2-ylamine] | 0.1 (≈ 0.279 µM) | 0.2 (≈ 0.558 µM) | 13.0 | – |
| Nc1ncccc1-c1cnn(Cc2ccc(OCc3ccccc3)cc2)c1 [Example 31, 3-(1-(4-Benzyloxy-benzyl)-1H-pyrazol-4-yl)-pyridin-2-ylamine] | 0.2 (≈ 0.561 µM) | 0.39 (≈ 1.09 µM) | – | 13.0 |
| Nc1ncccc1-c1cnn(Cc2ccc(COc3ccccn3)cc2)c1 [Example 32, 3-(1-(4-(Pyridin-2-yloxymethyl)-benzyl)-1H-pyrazol-4-yl)-pyridin-2-ylamine] | 0.2 (≈ 0.56 µM) | 0.78 (≈ 2.18 µM) | 10.2 | 12.2 |
| CCCCOCc1ccc(Cn2cc(-c3cccnc3N)cn2)cc1 [Example 33, 3-(1-(4-Butoxymethyl-benzyl)-1H-pyrazol-4-yl)-pyridin-2-ylamine] | 0.39 (≈ 1.16 µM) | 0.78 (≈ 2.32 µM) | 2.4 | 8.4 |
| Nc1ccc(-c2cnn(Cc3ccc(OCc4ccccc4)cc3)c2)c(N)n1 [Example 36, 3-(1-(4-Benzyloxy-benzyl)-1H-pyrazol-4-yl)-pyridin-2,6-diamine] | 0.39 (≈ 1.05 µM) | 0.78 (≈ 2.1 µM) | 9.4 | 14.0 |
| Nc1ccc(-c2cnn(Cc3ccc(COc4ccccn4)cc3)c2)c(N)n1 [Example 37, 3-(1-(4-(Pyridin-2-yloxymethyl)-benzyl)-1H-pyrazol-4-yl)-pyridin-2,6-diamine] | 0.39 (≈ 1.05 µM) | 1.56 (≈ 4.19 µM) | 5.4 | 14.0 |
| CCCCOCc1ccc(Cn2cc(-c3ccc(N)nc3N)cn2)cc1 [Example 38, 3-(1-(4-Butoxymethyl-benzyl)-1H-pyrazol-4-yl)-pyridin-2,6-diamine] | 0.78 (≈ 2.22 µM) | 1.56 (≈ 4.44 µM) | 4.8 | 10.0 |
| Nc1ccc(-c2cc(Cc3ccc(Oc4ccccc4)nc3)no2)c(N)n1 [Example 40, 3-(3-(6-Phenoxy-pyridin-3-ylmethyl)-isoxazol-5-yl)-pyridin-2,6-diamine] | 0.39 (≈ 1.09 µM) | 0.39 (≈ 1.09 µM) | 11.6 | 14.0 |
| Nc1ncccc1-c1cc(Cc2ccc(OCc3ccc(F)cn3)cc2)no1 [Example 41, 3-(3-(4-(5-Fluoro-pyridin-2-ylmethoxy)-benzyl)-isoxazol-5-yl)-pyridin-2-ylamine] | 0.39 (≈ 1.04 µM) | 0.2 (≈ 0.531 µM) | 11.4 | 11.8 |
| Cc1ccnc(OCc2ccc(Cc3cc(-c4cccnc4N)on3)cc2)c1 [Example 43, 3-(3-(4-(4-Methyl-pyridin-2-yloxymethyl)-benzyl)-isoxazol-5-yl)-pyridin-2-ylamine] | 0.2 (≈ 0.537 µM) | 0.39 (≈ 1.05 µM) | 10.6 | 14.0 |
| Nc1ncccc1-c1cc(Cc2ccc(OCc3cccc(F)n3)cc2)no1 [Example 45, 3-(3-(4-(6-Fluoro-pyridin-2-ylmethoxy)-benzyl)-isoxazol-5-yl)-pyridin-2-ylamine] | 0.39 (≈ 1.04 µM) | 0.2 (≈ 0.531 µM) | 10.6 | 10.8 |
| Nc1ncccc1-c1cc(Cc2ccc(OCc3cc(Cl)ccn3)cc2)no1 [Example 51, 3-(3-(4-(4-Chloro-pyridin-2-ylmethoxy)-benzyl)-isoxazol-5-yl)-pyridin-2-ylamine] | 0.1 (≈ 0.255 µM) | 0.39 (≈ 0.993 µM) | 13.5 | 14.0 |
| Nc1ncccc1-c1cc(Cc2ccc(OCc3cccc(Cl)n3)cc2)no1 [Example 52, 3-(3-(4-(6-Chloro-pyridin-2-ylmethoxy)-benzyl)-isoxazol-5-yl)-pyridin-2-ylamine] | 0.39 (≈ 0.993 µM) | 0.39 (≈ 0.993 µM) | 10.6 | 13.4 |
| Nc1ncccc1-c1cc(Cc2ccc(COc3ccccc3)nc2)no1 [Example 54, 3-(3-(6-Phenoxymethyl-pyridin-3-ylmethyl)-isoxazol-5-yl)-pyridin-2-ylamine] | 0.1 (≈ 0.279 µM) | 0.39 (≈ 1.09 µM) | 13.0 | 13.6 |
| Nc1ncccc1-c1cc(Cc2ccc(COc3cccc(F)n3)cc2)no1 [Example 55, 3-(3-(4-(6-Fluoro-pyridin-2-yloxymethyl)-benzyl)-isoxazol-5-yl)-pyridin-2-ylamine] | 0.05 (≈ 0.133 µM) | 0.1 (≈ 0.266 µM) | 13.8 | 14.0 |
| Nc1ncccc1-c1cc(Cc2ccc(OCc3ccc(F)cc3)nc2)no1 [Example 58, 3-(3-(6-(4-Fluoro-benzyloxy)-pyridin-3-ylmethyl)-isoxazol-5-yl)-pyridin-2-ylamine] | 0.78 (≈ 2.07 µM) | 0.1 (≈ 0.266 µM) | 3.8 | 12.0 |
| Nc1ncccc1-c1cc(Cc2ccc(Cc3ccc(Cl)o3)cc2)no1 [Example 62, 3-(3-(4-(5-Chloro-furan-2-ylmethyl)-benzyl)-isoxazol-5-yl)-pyridin-2-ylamine] | 0.2 (≈ 0.547 µM) | 0.2 (≈ 0.547 µM) | 10.2 | – |
| Nc1ncccc1-c1cc(Cc2ccc(CNc3ccccc3)cc2)no1 [Example 73, 3-(3-(4-Phenylaminomethyl-benzyl)-isoxazol-5-yl)-pyridin-2-ylamine] | 0.1 (≈ 0.281 µM) | 0.39 (≈ 1.09 µM) | 4.4 | 12.6 |
| Cc1ccnc(OCc2ccc(Cc3cc(-c4ccc(N)nc4N)on3)cc2)c1 [Example 102, 3-(3-(4-(4-Methyl-pyridin-2-yloxymethyl)-benzyl)-isoxazol-5-yl)-pyridin-2,6-diamine] | 0.2 (≈ 0.516 µM) | 0.39 (≈ 1.01 µM) | 13.2 | 13.0 |
